Experiments:
[1] = tested on: HepG2 human liver cancer cells; assay: Reactivity of M2 variants in HepG2; type: cell-based
Protocol: (§1) To examine the ability of the compound to inhibit the growth of the breast cancer cell line, the compounds was treated at each indicated μM concentration 1 and 3 days after cell attachment, and the control was treated with a 0.1% solvent (DMSO). After another two days, the cell lines that were attached to the culture plate and grew were rinsed with 1×PBS and treated with 4% paraformaldehyde at room temperature for 10 minutes to fix the cells. Then, after cells were rinsed twice with PBS, the fixed cells were treated with a 0.5% Triton X-100 solution and reacted at room temperature for 15 minutes, rinsed another three times with PBS, and then treated with a DAPI reagent at 0.5 μg/ml, and reacted at 37° C. for 10 minutes to stain the cell nuclei. After the cells were additionally rinsed once with PBS, cells stained with DAPI were photographed by Cytation 3, and the resulting images were analyzed with Gen5 software (Biotek, USA). Meanwhile, cells that grew in a floating manner without being attached to the culture plate were treated with a 4% paraformaldehyde solution, reacted at room temperature for 10 minutes to fix the cells, and then photographed in a bright field by Cytation3, and the resulting images were analyzed by Gen5 software (Biotek, USA).
To analyze the ability to inhibit the growth of liver cancer cell lines, 6.6×10^3 HepG2 cells per well, 1×10^3 cells of each of Hep3B, SNU-475, and SNU-449 per well, and 2×10^3 SNU-387 cells per well were aliquoted in a 96-well plate, cultured in the same manner as described above, treated with Compound 2 (M2), Compound 3 (M4), Compound 4 (M21), Compound 5 (M23), and Compound 6 (M25), and then the ability to inhibit the growth of cells was analyzed.

[2] = tested on: MDA-MB-468 cells; assay: Cancer cell growth inhibition (DAPI nuclei count), breast cancer line; type: cell-based; settings: treated 1 and 3 days after attachment
Protocol: For this purpose, experiments were performed using liver cancer, breast cancer, hematologic cancer, cervical cancer, and prostate cancer cell lines, a murine liver cancer cell line HEPA 1-6 and a breast cancer cell line MDA-MB-468 were cultured in a DMEM medium supplemented with 10% fetal bovine serum (FBS) and 1% penicillin/streptomycin, the other cell lines were cultured in a RPMI1640 medium supplemented with the same additives, and the cell lines were used in the experiment.
To examine the ability of the compound to inhibit the growth of the breast cancer cell line, the compounds was treated at each indicated μM concentration 1 and 3 days after cell attachment, and the control was treated with a 0.1% solvent (DMSO). […] After the cells were additionally rinsed once with PBS, cells stained with DAPI were photographed by Cytation 3, and the resulting images were analyzed with Gen5 software (Biotek, USA). Meanwhile, cells that grew in a floating manner without being attached to the culture plate were treated with a 4% paraformaldehyde solution, reacted at room temperature for 10 minutes to fix the cells, and then photographed in a bright field by Cytation3, and the resulting images were analyzed by Gen5 software (Biotek, USA). […]

[3] = tested on: PLK1; assay: PLK1 position in the cell (r-tubulin, PLK1, DAPI staining); type: cell-based; settings: middle stage of cell division
[4] = tested on: HepG2 cells; assay: Cell viability after treatment (Hoechst 33342); type: cell-based; settings: HepG2, various concentrations, two treatments 48 hours apart
Protocol: HepG2 cells, a hepatocellular carcinoma cell line, were plated with 4 to 6 replications at each hit compound concentration in a 96-well microtiter plate supplemented with a culture medium. The hit compound dissolved in DMSO was added the next day according to the design of experiments, and the number of seeded cells was determined by the cell density reaching 80% on the final day of the protocol treated as a cell control. After 24 hours of cell seeding, cells were treated with hit compounds (M2 and BI2536) at various concentrations, and 48 hours after primary treatment, the medium was aspirated and then secondary treatment was performed. After 48 hours, cell nuclei were visualized by 2.5 μM Hoechst 33342 staining at 37° C. for 30 minutes, then the medium was aspirated and washed with a fresh medium. The plate was read using Cytation™ 3 (BioTek, USA), the cell viability was analyzed, and the results were presented as a relative percentage of viable cells after treatment with the hit compound compared to the control treatment.

[5] = tested on: HepG2 cell; assay: Apoptosis by annexin V-FITC / PI flow cytometry; type: cell-based; settings: HepG2, 3 days; M2 20 or 100 μM; BI2536 20 or 100 nM
Protocol: To analyze the pattern of apoptosis by exposure to M2, HepG2 cell, a hepatocellular carcinoma cell line, were treated with 20 or 100 μM M2 and 20 or 100 nM BI2536 for 3 days. The apoptosis was detected by annexin V-fluorescein isothiocyanate (annexin V-FITC) and propidium iodide (PI) staining of necrotic and apoptosis cells. First, cells were harvested and washed once with PBS. The cells were then resuspended in a 100 μl binding buffer containing 4 μl of Annexin V (BD, 51-65874X) and PI (BD, 51-66211E). The cells were stained at 37° C. for 15 minutes in the dark and then analyzed using FACSan (BD, San Jose, Calif.). Data was analyzed using CELLQuest software (BD).

[6] = tested on: human liver cancer PDX; assay: Orthotopic xenograft model using human liver cancer PDX; type: in vivo, BalB/C nude mice; settings: M2 40 mg/kg i.p. once every two days, 11 treatments for 3 weeks
Protocol: A cancer tissue isolated from human liver cancer was transplanted into skin tissues of BalB/C nude mice and the skin tissues were grown into cancer tissues, so that a tissue established as a PDX model was used, uniformly cut into 1 mm^3, and transplanted into the right median lobe of the liver by excising the abdomen within 1 cm. Sm all spots were confirmed on the MRI image about 10 days after transplanting the liver cancer tissue into 20 BalB/C nude mice by the above method, so that rodents with well-established liver cancer were divided into 3 groups (see FIGS. 22A, 22B, and 22C), a solvent control (DMSO), a hit (M2) material at 40 mg/kg, and BI2536 at 4 mg/kg were injected into the abdominal cavity once every two days using less than 1.5% DMSO as a solvent (vehicle), and once a week, MRI images were used to select (follow up) rodents with constant tissue growth. Then, when the rapidly growing cancer tissue was 1 cm or less, the cancer tissue was observed after sacrificing the mice (11 treatments for 3 weeks).

[7] = tested on: liver cancer cell lines; assay: Mixed treatment of Compound 2 (M2) and BI2536; type: cell-based; settings: mixture of Compound 2 (M2) at a low concentration and BI2536
[8] = tested on: JIMT1 human breast cancer cells; assay: Cancer cell growth inhibition, M2 variants in JIMT1; type: cell-based
Protocol: as §1

[9] = tested on: SNU-449; assay: Cell cycle by flow cytometry, phospho-histone H3 (Ser10) staining; type: cell-based; settings: M2 20, 40, 80 μM, BI2536 20 nM
Protocol: Flow cytometry equipment was used to confirm the effect on the cell cycle in the case of treatment with Compound 2 (M2). SNU-449, which is one of the liver cancer cell lines, were treated with Compound 2 (M2) at each of concentrations of 20, 40, and 80 μM after 1 day and 3 days, and were harvested after another 2 days.
Furthermore, it was intended to more specifically stain a cell population that stopped in the metaphase of cell division using a phospho-histone H3 (Ser10) antibody capable of specifically staining only the cells that stopped in the metaphase of cell division. As a positive control, cells were treated with BI2536 known as a PLK1 kinase inhibitor at 20 nM and used to observe cells in the metaphase of cell division and an increase in the G2/M phase.

[10] = tested on: NCAPG2 in HEK293 cell line; assay: Staining of NCAPG2 in chromosome arm and kinetochore; type: cell-based; settings: HEK293, 50 uM, 24 hours, compared to the control

Q: Which results are given for Cn1c2nc(=O)[nH]c(=O)c-2nc2ccccc21 [Compound 2, 10-methyl-2H,3H,4H,10H-benzo[g]pteridine-2,4-dione]?
A: areas of liver cancer cells [1]: remarkably reduced in a dose-dependent manner; number of cells [2]: the number of cells was remarkably reduced in proportion to the treatment concentration; position of PLK1 [3]: difficult for PLK1 to be located in a normal position; r-tubulin located in the centrosome (staining / position) [3]: weakly stained; cell viability [4]: the relatively less the cell viability became; apoptosis cells [5]: apoptosis cells were increased; apoptosis with increasing dose [5]: apoptosis was increased in a dose-dependent manner; volume of the cancer tissue [6]: reduced remarkably; weight of the cancer tissue [6]: reduced remarkably; inhibition of cancer cells by mixed treatment [7]: the cooperative ability of BI2536 to inhibit cancer cells could be observed; number of cancer cells [8]: remarkably reduced the number of cancer cells in a dose-dependent manner; proportion of polyploid cells [9]: not increased at all the treated concentrations; proportion of phospho-histone H3-positive cells ([9]; compared to CT): decreased; degree of staining of NCAPG2 in the chromosome arm and kinetochore [10]: reduced

Source: US20220033405A1, “PHARMACEUTICAL COMPOSITION FOR PREVENTING OR TREATING CANCER CONTAINING PLK1 INHIBITOR AS ACTIVE INGREDIENT” (NATIONAL CANCER CENTER, priority 2018, published 2022)
